{"source": "patent US6630303B1", "about": "“Methods of screening for compounds active on Staphylococcus aureus target genes” (priority 1995, dated 2003)", "key": {"[1]": {"tested_on": "Salmonella wild type parent strain", "experiment": "Carbon source utilization profile (gene sensor methodology)", "type": "cell-based", "settings": "sublethal concentration; carbon source not used by the dapA or murCEFG mutant", "source_text": "The growth conditional mutants are also used in gene sensor methodology, e.g., using carbon utilization profiles. Ts mutants fail to metabolize different carbon sources in semi-permissive growth conditions. The carbon sources not utilized by a specific mutant or group of mutants provide additional phenotypes associated with the crippled essential function. Moreover, some of these carbon source markers were also not used by the wild type strain exposed to sub-MIC concentrations of known drugs affecting the same specific cellular targets or pathways."}, "[2]": {"tested_on": "ts S. typhimurium mutant alleles of the gyrase subunit A", "experiment": "Hypersusceptibility (MIC) of S. typhimurium gyrA ts mutants at semi-permissive temperature", "type": "cell-based, Salmonella typhimurium", "procedure": "As an illustration of the hypersusceptibility profiles for a group of bacterial ts mutant strains, the minimal inhibitory concentrations (MICs) of various drugs and toxic agents were determined for a set of Salmonella typhimurium temperature-sensitive essential gene mutants.\nThe MICs were measured by using a standard micro broth dilution technique following the recommendations of the National Committee for Clinical Laboratory Standards (1994). Bacteria were first grown in Mueller-Hinton broth at 30° C., diluted to 10^5 cfu/ml and used to inoculate 96-microwell plates containing two-fold dilutions of antibiotics in Mueller-Hinton broth. Plates were incubated for 20 h at a semi-permissive temperature (35° C.) and the MIC was determined as the lowest dilution of antibiotic preventing visible growth.\nA two-fold difference in the susceptibility level of the mutant strain compared to that of the parental strain is within the limits of the experimental variation and thus a ≧4-fold decrease in MIC was considered as a significant hypersusceptibility.\nThe specific hypersensitivity of temperature sensitive mutations in a known target to inhibitors of that target is shown in FIG. 1 with the susceptibility profile of three ts S. typhimurium mutant alleles of the gyrase subunit A (gyrA212, gyrA215 and gyrA216) grown at a semi-permissive temperature (35° C.)."}, "[3]": {"settings": "mutant gyrA215, semi-permissive temperature 35° C."}, "[4]": {"settings": "mutant gyrA222, semi-permissive temperature 35° C."}}}
{"compound": "Cn1nnnc1SCC1=C(C(=O)O)N2C(=O)[C@@H](NC(=O)[C@H](O)c3ccccc3)[C@H]2SC1", "note": "[cefamandole]", "values": [{"measurement": "carbon source metabolism", "setting": "[1]", "value": "prevented the Salmonella wild type parent strain from metabolizing the same carbon source"}]}
{"compound": "CCn1cc(C(=O)O)c(=O)c2cc(F)c(N3CCNCC3)cc21", "note": "[norfloxacin]", "values": [{"measurement": "hypersusceptibility compared to wild-type parent strain", "setting": "[2]; [3]", "value": "hypersusceptibility"}, {"measurement": "hypersusceptibility compared to wild-type parent strain", "setting": "[2]; [4]", "value": "hypersusceptibility"}]}
{"compound": "O=C(O)c1cn(C2CC2)c2cc(N3CCNCC3)c(F)cc2c1=O", "note": "[ciprofloxacin]", "values": [{"measurement": "hypersusceptibility compared to wild-type parent strain", "setting": "[2]; [4]", "value": "hypersusceptibility"}]}
{"compound": "coumermycin", "values": [{"measurement": "hypersusceptibility compared to wild-type parent strain", "setting": "[2]; [3]", "value": "hypersusceptibility"}, {"measurement": "hypersusceptibility compared to wild-type parent strain", "setting": "[2]; mutant gyrA276, semi-permissive temperature 35° C.", "value": "hypersusceptibility"}]}
